“Also recorded” adds a separate entry of the source.
How the values were obtained:
mice mesenteric arteries [1] = test: Vascular reactivity of phenylephrine-precontracted mice mesenteric arteries; format: cell-based; details: for direct dose-dependent vasorelaxation compared with Healthberry 865 / vasorelaxation reached: single anthocyanins; for direct dose-dependent vasorelaxation compared with Healthberry 865: 1-100 μg/mL; for vasorelaxation reached: dose-response curves 1-100 μg/mL
Procedure: Aorta, carotid, femoral arteries and second-order branches of the mesenteric arterial tree were removed from mice to perform vascular studies. […] First, an analysis of vascular reactivity curves was performed. In particular, vasoconstriction was assessed with 80 mmol/L of KCI or with increasing doses of phenylephrine (from 10^-9 M to 10^-6 M) in control conditions. […] Caution was taken to avoid endothelial damage; functional integrity was reflected by the response to acetylcholine (from 10^-9 M to 10^-6 M).

mice mesenteric arteries [2] = test: Evaluation of NO production by DAF-FM in mice mesenteric arteries; format: cell-based; details: single anthocyanins 50 μg/mL
Procedure: Production of NO was assessed as previously described (Carrizzo et al. 2016). […] Mesenteric segments were cut in 5-μm thick sections, observed under a fluorescence microscope, subsequently counterstained with haematoxylin and eosin and observed under a light microscope.
Scale bar, 50 μm. E) Semiquantitative analyses of immunoblots of mice mesenteric arteries treated with HB (100 μg/mL) alone, or HB plus Akt inhibitor or LY294002, columns are the mean±SEM of three independent experiments. Statistical analyses were performed using two-way ANOVA followed Bonferroni post-hoc test. *p<0.05; **p<0.01, ***p<0.001.

mice mesenteric arteries [3] = test: Total ROS production by dihydroethidium (DHE) in Angiotensin II-stimulated mice mesenteric arteries; format: cell-based; details: pre-treatment 50 μg/mL for 1 hour, then Angiotensin II for 15 minutes
Procedure: (§1) Dihydroethidium (DHE, Life Technologies) was used to evaluate production of reactive oxygen species (ROS) in mouse mesenteric arteries, as previously described. Briefly, vessels were incubated with 5 μM of DHE for 20 min and subsequently observed under a fluorescence microscope (Zeiss). Images were acquired by a digital camera system (Olympus Soft Imaging Solutions). […] After treatment, vessels were incubated with Krebs solution containing 5 μM DHR123 for 30 min at 37° C., and then washed two times with PBS prior to fluorescence measurement using a fluorescence microplate reader (TECAN infinite 200 Pro).

mice mesenteric arteries [4] = test: Total ROS production by Dihydrorhodamine 123 (DHR123) in mouse vessels; format: cell-based; details: vessels stimulated with Angiotensin II
Procedure: as §1

NADPH oxidase = NADPH oxidase activity, lucigenin-enhanced chemiluminescence assay in mesenteric arteries; format: cell-based, mice; details: after stimulation with Angiotensin II
Procedure: Vessels were homogenized in a buffer containing protease inhibitors (mmol/L: 20 monobasic potassium phosphate, 1 EGTA, 0.01 aprotinin, 0.01 leupeptin, 0.01 pepstatin, 0.5 phenylmethylsulfonyl fluoride, pH 7.0). Protein content was measured in an aliquot of the homogenate by Bradford method. In some experiments, cells and vessels were pre-incubated with pharmacological inhibitors before measurements. The reaction was started by the addition of NADPH (0.1 mmol/l) and lucigenin (5 μmol/l) to each well. The chemiluminescence was measured using Tecan Infinite Pro M200 multimode microplate at 37° C.
Vessels were pre-treated with single anthocyanins (50 μg/mL) for 1 hours and then stimulated with Angiotensin II for 15 minutes prior to the acquisition. […] Data are expressed as increase of chemiluminescence per minute.

| Compound | vasorelaxant effect in presence of Akt inhibitor (mice mesenteric arteries [1]; increasing doses, Akt inhibitor) | vasorelaxant effect in presence of PI3K inhibitor LY294002 (mice mesenteric arteries [1]; increasing doses, pre-treatment with LY294002) | vasorelaxant effect in presence of L-NAME (mice mesenteric arteries [1]; increasing doses, pre-treatment with eNOS inhibitor L-NAME) | vasorelaxant effect in presence of Dorsomorphin (mice mesenteric arteries [1]; increasing doses, selective AMPK inhibitor Dorsomorphin) | direct dose-dependent vasorelaxation compared with Healthberry 865 (mice mesenteric arteries [1]) | nitric oxide production (DAF-FM fluorescence) (mice mesenteric arteries [2]) | Angiotensin II-induced ROS formation (DHE) (mice mesenteric arteries [3]) | total ROS production (DHR123) (mice mesenteric arteries [4]) | NADPH oxidase (NOX) activity (NADPH oxidase) | vasorelaxation reached (mice mesenteric arteries [1]) |
| --- | --- | --- | --- | --- | --- | --- | --- | --- | --- | --- |
| OC[C@H]1O[C@@H](Oc2cc3c(O)cc(O)cc3[o+]c2-c2ccc(O)c(O)c2)[C@H](O)[C@@H](O)[C@H]1O [C3-gal, Cyanidin-3-galactoside] | did not inhibit C3-gal vascular action | did not inhibit C3-gal vascular action | significantly reduced its vasorelaxant properties | completely lost its vasorelaxant capability | very similar to that induced by Healthberry 865® | significant increase of nitric oxide production | – | – | – | – |
| OC[C@H]1O[C@@H](Oc2cc3c(O)cc(O)cc3[o+]c2-c2ccc(O)c(O)c2)[C@H](O)[C@@H](O)[C@@H]1O [C3-glu, Cyanidin-3-glucoside] | – | – | – | – | none of the single anthocyanins was able to evoke a dose-dependent vasorelaxation comparable | – | able to reproduce the antioxidant action of Healthberry 865® | a similar effect was reproduced | able to reduce NOX activity; also recorded: most powerful anthocyanins closer to the potent effect of Healthberry 865® | – |
| C[C@@H]1O[C@@H](OC[C@H]2O[C@@H](Oc3cc4c(O)cc(O)cc4[o+]c3-c3ccc(O)c(O)c3)[C@H](O)[C@@H](O)[C@@H]2O)[C@H](O)[C@H](O)[C@H]1O [C3-rut, Cyanidin-3-rutinoside] | – | – | – | – | none of the single anthocyanins was able to evoke a dose-dependent vasorelaxation comparable; also recorded: vasorelaxant effects evoked by DP3-gal, C3-rut and DP3-ara were observed | – | able to reproduce the antioxidant action of Healthberry 865® | a similar effect was reproduced | able to reduce NOX activity | ~36,5% |
| Oc1cc(O)c2cc(O[C@H]3OC[C@H](O)[C@H](O)[C@H]3O)c(-c3cc(O)c(O)c(O)c3)[o+]c2c1 [DP3-ara, Delphinidin-3-arabinoside] | – | – | – | – | none of the single anthocyanins was able to evoke a dose-dependent vasorelaxation comparable; also recorded: vasorelaxant effects evoked by DP3-gal, C3-rut and DP3-ara were observed | – | – | – | – | – |
| OC[C@H]1O[C@@H](Oc2cc3c(O)cc(O)cc3[o+]c2-c2cc(O)c(O)c(O)c2)[C@H](O)[C@@H](O)[C@H]1O [DP3-gal, Delphinidin-3-galactoside] | – | – | – | – | none of the single anthocyanins was able to evoke a dose-dependent vasorelaxation comparable; also recorded: vasorelaxant effects evoked by DP3-gal, C3-rut and DP3-ara were observed | – | – | – | – | about 32,5% |
| OC[C@H]1O[C@@H](Oc2cc3c(O)cc(O)cc3[o+]c2-c2cc(O)c(O)c(O)c2)[C@H](O)[C@@H](O)[C@@H]1O [DP3-glu, Delphinidin-3-glucoside] | – | – | – | – | none of the single anthocyanins was able to evoke a dose-dependent vasorelaxation comparable | – | able to reproduce the antioxidant action of Healthberry 865® | a similar effect was reproduced | able to reduce NOX activity | – |
| COc1cc(-c2[o+]c3cc(O)cc(O)c3cc2O[C@@H]2O[C@H](CO)[C@H](O)[C@H](O)[C@H]2O)cc(OC)c1O [MAL3-gal, Malvidin-3-galactoside] | – | – | – | – | none of the single anthocyanins was able to evoke a dose-dependent vasorelaxation comparable | – | able to reproduce the antioxidant action of Healthberry 865® | a similar effect was reproduced | able to reduce NOX activity | – |
| COc1cc(-c2[o+]c3cc(O)cc(O)c3cc2O[C@@H]2O[C@H](CO)[C@@H](O)[C@H](O)[C@H]2O)cc(OC)c1O [MAL3-glu, Malvidin-3-glucoside] | – | – | – | – | none of the single anthocyanins was able to evoke a dose-dependent vasorelaxation comparable | – | able to reproduce the antioxidant action of Healthberry 865® | a similar effect was reproduced | able to reduce NOX activity; also recorded: most powerful anthocyanins closer to the potent effect of Healthberry 865® | – |
| COc1cc(-c2[o+]c3cc(O)cc(O)c3cc2O[C@@H]2O[C@H](CO)[C@@H](O)[C@H](O)[C@H]2O)cc(O)c1O [PT3-glu, Petunidin-3-glucoside] | – | – | – | – | none of the single anthocyanins was able to evoke a dose-dependent vasorelaxation comparable | – | – | – | – | – |
| Peonidin-3-galactoside [PEO3-gal] | – | – | – | – | none of the single anthocyanins was able to evoke a dose-dependent vasorelaxation comparable | – | able to reproduce the antioxidant action of Healthberry 865® | a similar effect was reproduced | able to reduce NOX activity | – |

Source: patent publication US20230014918A1, “COMPOSITIONS FOR USE AS ANTIOXIDANT” (priority 2019, published 2023)
